Tests used:
Format in all cases: functional, cell-based
[1] = target: T1, Retinoic acid receptor beta (Homo sapiens, UniProt P10826); assay: Agonist activity at RARbeta-LBD expressed in HEK293 cells assessed as Gal4-DBD interaction by cellular mammalian one hybrid assay
T1 sequence (P10826 whole entry): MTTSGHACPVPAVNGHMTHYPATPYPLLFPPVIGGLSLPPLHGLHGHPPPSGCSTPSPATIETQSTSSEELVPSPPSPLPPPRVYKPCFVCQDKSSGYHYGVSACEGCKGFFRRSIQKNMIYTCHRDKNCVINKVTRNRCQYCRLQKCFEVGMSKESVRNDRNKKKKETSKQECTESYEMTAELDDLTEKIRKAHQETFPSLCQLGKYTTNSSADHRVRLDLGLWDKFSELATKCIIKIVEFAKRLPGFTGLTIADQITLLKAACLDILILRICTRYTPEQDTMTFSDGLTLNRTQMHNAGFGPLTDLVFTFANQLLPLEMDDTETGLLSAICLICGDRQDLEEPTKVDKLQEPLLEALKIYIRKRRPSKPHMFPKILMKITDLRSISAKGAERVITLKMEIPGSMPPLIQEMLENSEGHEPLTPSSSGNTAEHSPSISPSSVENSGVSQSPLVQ

Progesterone receptor = target: T2, Progesterone receptor (Homo sapiens, UniProt P06401); assay: Agonist activity at progesterone receptor-LBD expressed in HEK293 cells assessed as Gal4-DBD interaction by cellular mammalian one hybrid assay
T2 sequence (P06401 whole entry): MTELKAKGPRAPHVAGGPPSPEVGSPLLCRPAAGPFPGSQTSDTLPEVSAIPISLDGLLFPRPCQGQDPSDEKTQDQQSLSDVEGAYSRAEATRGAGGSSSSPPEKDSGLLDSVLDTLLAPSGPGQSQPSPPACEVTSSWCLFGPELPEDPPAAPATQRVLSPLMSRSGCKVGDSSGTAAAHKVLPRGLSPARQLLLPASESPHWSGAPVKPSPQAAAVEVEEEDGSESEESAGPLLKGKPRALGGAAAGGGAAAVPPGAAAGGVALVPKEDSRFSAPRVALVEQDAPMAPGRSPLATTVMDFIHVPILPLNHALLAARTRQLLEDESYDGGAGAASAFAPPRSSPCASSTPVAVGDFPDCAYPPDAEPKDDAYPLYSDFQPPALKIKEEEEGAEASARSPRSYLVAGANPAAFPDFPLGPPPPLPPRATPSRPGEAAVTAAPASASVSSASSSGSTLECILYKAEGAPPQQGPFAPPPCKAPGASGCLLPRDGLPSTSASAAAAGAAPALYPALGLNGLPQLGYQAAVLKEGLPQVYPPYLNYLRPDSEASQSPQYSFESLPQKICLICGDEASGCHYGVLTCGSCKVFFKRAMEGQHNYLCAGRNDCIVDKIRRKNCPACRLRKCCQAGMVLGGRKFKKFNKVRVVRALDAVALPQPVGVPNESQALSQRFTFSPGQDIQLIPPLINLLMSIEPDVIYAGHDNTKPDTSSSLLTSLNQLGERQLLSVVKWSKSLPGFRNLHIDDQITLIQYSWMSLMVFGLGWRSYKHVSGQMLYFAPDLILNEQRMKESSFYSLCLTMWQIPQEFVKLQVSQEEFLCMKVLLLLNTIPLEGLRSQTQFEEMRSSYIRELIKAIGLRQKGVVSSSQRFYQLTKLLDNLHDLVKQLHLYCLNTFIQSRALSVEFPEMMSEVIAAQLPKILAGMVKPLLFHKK

[2] = target: T3, Glucocorticoid receptor (Homo sapiens) (UniProt P04150); assay: Agonist activity at GR-LBD expressed in HEK293 cells assessed as Gal4-DBD interaction by cellular mammalian one hybrid assay relative to glucocorticoid
T3 sequence (whole entry): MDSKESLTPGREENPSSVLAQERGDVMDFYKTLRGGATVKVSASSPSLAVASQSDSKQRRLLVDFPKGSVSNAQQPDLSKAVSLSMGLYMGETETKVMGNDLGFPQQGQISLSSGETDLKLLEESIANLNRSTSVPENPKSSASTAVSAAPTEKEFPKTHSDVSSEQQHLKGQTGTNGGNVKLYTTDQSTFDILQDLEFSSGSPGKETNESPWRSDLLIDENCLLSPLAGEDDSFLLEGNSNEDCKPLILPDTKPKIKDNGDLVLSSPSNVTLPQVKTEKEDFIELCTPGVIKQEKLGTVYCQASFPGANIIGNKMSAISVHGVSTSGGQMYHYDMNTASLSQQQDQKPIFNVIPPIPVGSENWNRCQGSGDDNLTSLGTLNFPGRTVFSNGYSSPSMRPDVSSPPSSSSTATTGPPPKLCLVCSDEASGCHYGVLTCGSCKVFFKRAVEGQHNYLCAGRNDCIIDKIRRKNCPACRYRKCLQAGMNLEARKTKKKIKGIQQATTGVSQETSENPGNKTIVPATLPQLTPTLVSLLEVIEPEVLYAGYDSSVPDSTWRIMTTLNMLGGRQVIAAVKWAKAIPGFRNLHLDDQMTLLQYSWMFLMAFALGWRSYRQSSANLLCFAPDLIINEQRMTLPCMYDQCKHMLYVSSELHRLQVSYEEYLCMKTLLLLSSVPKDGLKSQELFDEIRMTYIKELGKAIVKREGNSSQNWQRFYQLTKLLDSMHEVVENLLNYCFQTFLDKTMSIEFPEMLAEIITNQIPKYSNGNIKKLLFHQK

| EC50 [1] [µM] | EC50 (Progesterone receptor) [µM] | Efficacy [2] [%] | SMILES |
| --- | --- | --- | --- |
| > 10 | > 10 | 0 | CN(Cc1ccc(C(=O)O)cc1)c1ccc(OCc2c(-c3c(Cl)cccc3Cl)noc2C2CC2)nc1C(F)(F)F |
| > 10 | > 10 | 0 | CC(C)c1onc(-c2c(Cl)cccc2Cl)c1COc1ccc(N(C)Cc2ccc(C(=O)O)cc2)c(C(F)(F)F)n1 |
| > 10 | > 10 | 0 | CN(Cc1cccc(C(=O)O)c1)c1ccc(OCc2c(-c3c(Cl)cccc3Cl)noc2C2CC2)nc1C(F)(F)F |
